Source: patent publication US11083706B2, “Lactams for use in the treatment of skin lesions” (priority 2016, dated 2021)
“Also recorded” adds a separate entry of the source.

Assays:
[1] = test system: PqsR-dependent pqsA::lux promoter fusion; test: pqsA::lux promoter fusion expression in P. aeruginosa PAO1-L (AQ-dependent QS biosensor); type: cell-based; settings: for IC50: Pseudomonas aeruginosa, PAO1, read-out: IC50, pqsA::lux expression; for extent of inhibition of light output / pqsA expression at high concentrations: PAO1 pqsA::lux; for inhibition of pqsA::lux expression in first screening (FIG. 1-3): lactam 100 μM, control LB medium+1% methanol
Description: The expression of rhl and las AHL- and the pqsA AQ-synthase genes was evaluated using lux-based lasI (FIG. 1), rhlI (FIG. 2) and pqsA (FIG. 3) chromosomally integrated promoter fusions. Luminescence was quantified as a function of bacterial growth. The applicant further determined that none of the lactams is growth inhibitory at 100 μM using a large number of strains (figure not shown).
To determine the relative inhibitory activities (IC50s) of 4-(4-chlorophenyl)-5-methylene-pyrrol-2-one (Ref. 488) and 5-methylene-4-(p-tolyl)pyrrol-2-one (Ref. 491), dose response curves were constructed using the same biosensor strain (P. aeruginosa PAO1 pqsA::lux; Fletcher et al, 2007; Ilangovan et al 2013). This strain produces light in response to the endogenous production of AQs such as PQS and HHQ.

[2] = test system: pyocyanin production by PAO1-L; test: Pyocyanin production by PAO1-L, visual assessment; type: cell-based, P. aeruginosa PAO1-L; settings: 488 at 100 μM (vial 2), 8 h at 37° C., PAO1-L culture supernatant
Text: Pyocyanin is a blue redox-active secondary metabolite and a putative signalling molecule in P. aeruginosa (Jayaseelan et al, 2014). The pyocyanin biosynthetic (phz) genes are regulated by QS and in part via the transcriptional regulator PqsR acting through PqsE (Rampioni et al 2011).
Although qualitative, this observation offers further confirmation of the inhibitory effects of lactam 4-(4-chlorophenyl)-5-methylene-pyrrol-2-one (Ref. 488) on AQ-dependent QS.

[3] = target: T1, PqsR (Pseudomonas aeruginosa, UniProt Q9I4X0); test: PQS-dependent pqsA::lux expression in AQ-non-producing PAO1-L ΔpqsA (PqsR antagonism); type: cell-based, P. aeruginosa PAO1-L ΔpqsA
T1 construct: endogenous in cells; host or cells: P. aeruginosa PAO1-L ΔpqsA pqsA::lux (chromosomal reporter fusion)
T1 sequence (Q9I4X0 whole entry, the tested form may be a part): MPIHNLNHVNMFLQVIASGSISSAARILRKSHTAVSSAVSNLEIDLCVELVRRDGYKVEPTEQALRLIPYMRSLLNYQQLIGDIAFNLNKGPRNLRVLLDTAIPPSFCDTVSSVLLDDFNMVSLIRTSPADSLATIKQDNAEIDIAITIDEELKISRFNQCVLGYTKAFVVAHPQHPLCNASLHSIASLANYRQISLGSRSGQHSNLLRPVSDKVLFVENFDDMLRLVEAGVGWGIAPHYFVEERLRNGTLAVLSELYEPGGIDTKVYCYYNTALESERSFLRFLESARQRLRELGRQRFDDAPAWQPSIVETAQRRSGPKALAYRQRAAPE
Description: By using the AQ-non producing P. aeruginosa strain PAO1-L ΔpqsA, pqsA::lux, the EC50 value for the native PqsR agonist, PQS was calculated as ˜2 μM (Ilangovan et al. 2013). […]
A partial agonist is a molecule that can bind to and activate a receptor resulting in a non-complete response compared with a full agonist. […] This contrasts with its activity as an antagonist in the presence of 10 or 40 μM PQS.

[4] = test system: PqsR-independent pathway of pqsA expression; test: PqsR-independent expression of pqsA'::lux in PAO1-N ΔpqsAHR; type: cell-based, P. aeruginosa PAO1-N ΔpqsAHR; settings: presence or absence of 40 μM PQS
Text: PQS is capable of weakly activating pqsA in the absence of PqsR via a mechanism that is not fully understood but appears to depend on the iron chelating properties of PQS. The aim of this experiment was to clarify whether lactam 4-(4-chlorophenyl)-5-methylene-pyrrol-2-one (Ref. 488) is also inhibitory for pqsA expression via the PqsR independent pathway. As previously described, the pqsA′::lux biosensor based on the triple mutant PAO1-N ΔpqsAHR cannot produce AQs and lacks pqsR but still responds to exogenous PQS. This response is however much weaker that the PqsR-dependent response.

[5] = test system: enzymes (PqsABCD) involved in AQ biosynthesis; test: HHQ/AQ biosynthesis in PAO1-N ΔpqsAHR pBBR-pqsABCD, TLC with biosensor overlay; type: cell-based, P. aeruginosa PAO1-N ΔpqsAHR; settings: 488 200 μM, overnight in LB
Text: To determine whether 4-(4-chlorophenyl)-5-methylene-pyrrol-2-one (Ref. 488) is capable of inhibiting the enzymes (PqsABCD) involved in AQ biosynthesis, the P. aeruginosa PAO1-N ΔpqsAHR was exploited. This mutant cannot produce AQs because the genes coding for the key biosynthetic enzymes (PqsA and PqsH) and regulation (PqsR) have been deleted. To restore AQ production in a PqsR-independent manner in PAO1-N ΔpqsA, the pqsABCD genes were introduced on a plasmid (pBBR pqsABCD; Niewerth et al. 2011). P. aeruginosa PAO1-N ΔpqsAHR and P. aeruginosa PAO1-N ΔpqsAHR pBBR pqsABCD were both incubated overnight in LB with and without 4-(4-chlorophenyl)-5-methylene-pyrrol-2-one (Ref. 488) (200 μM), resuspended to an OD600 1.0. The cultures were extracted with acidified ethyl acetate, the organic phase removed, dried and resuspended in methanol subjected to thin layer chromatography (TLC).
After chromatography using a dichloromethane-methanol mobile phase, the TLC plates were overlaid with a thin agar layer containing the AQ biosensor strain PAO1-L ΔpqsA CTX::pqsA′-luxCDABE (Fletcher et al. 2007) incubated and examined for reporter output (FIG. 13). […] The biosensor strain produces light (FIG. 13 panel C) and pyocyanin (FIG. 13 panel B) in response to AQs that bind to PqsR and activate the pqsA promoter.

| Compound | IC50 [1] [µM] | extent of inhibition of light output / pqsA expression at high concentrations [1] | inhibition of pqsA::lux expression in first screening (FIG. 1-3) [1] | pyocyanin production (qualitative) [2] | mode of antagonism of PQS-dependent pqsA::lux expression ([3]; 488 at 0, 50, 100, 200 μM with range of PQS concentrations) | restoration of light output by PQS in the presence of 488 ([3]; 488 at 50, 100, 200 μM) | partial agonist activity (activation of pqsA expression) ([3]; 488 up to 800 μM, PQS 0 μM, PAO1-L ΔpqsA pqsA'::lux) | fold increase of PQS EC50 in the presence of 488 ([3]; fixed concentration of 488 (215 μM)) [fold] | effect on PqsR-independent expression of pqsA [4] | inhibition of HHQ biosynthesis [5] |
| --- | --- | --- | --- | --- | --- | --- | --- | --- | --- | --- |
| C=C1NC(=O)C=C1c1ccc(Cl)cc1 [Lactam 488, 4-(4-chlorophenyl)-5-methylene-pyrrol-2-one] | 22 | completely inhibited light output; also recorded: fully knock out the PQS | most potent inhibitor; also recorded: inhibition of the pqs-system is the main effect | inhibition of pyocyanin production | competitive antagonist | fully restoring light output in the presence of 50 μM but not 100 μM or 200 μM | no partial agonist activity | ~15 | small inhibitory effect | did not inhibit HHQ biosynthesis |
| C=C1NC(=O)C=C1c1ccc(C)cc1 [Lactam 491, 5-methylene-4-(p-tolyl)pyrrol-2-one] | 44 | did not inhibit pqsA expression as strongly; also recorded: did not give complete knock out | inhibition of the pqs-system is the main effect |  |  |  |  |  |  |  |
